Data as given in patent publication US6914045B2, “Glycopeptide antibiotics” (Wyeth Holdings Corporation, priority 2001, dated 2005).
Converted amounts (≈) assume the structure as drawn.

Experiments:
Test in all cases: in vitro antibacterial evaluation, MIC by broth dilution
Assay type in all cases: cell-based
Enterococcus sp. = details: broth dilution, 18 hours at 35° C.
Outline: (§1)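 Broth dilution per NCCLS standard M7-A2 in Muller-Hinton II […], with an inoculum of 5×10^5 CFU/mL and antibiotic spanning 64-0.06 μg/mL. The MIC is the lowest concentration that inhibits growth of the organism.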

Staphylococcus sp. = details: broth dilution, 18 hours at 35° C.
Outline: as §1

Streptococcus sp. = details: broth dilution, 18 hours at 35° C.
Outline: as §1

Escherichia coli = details: 18 hours at 35° C.

COc1ccc(COCC2OC(OC3C(CO)OC(Oc4ccc(CC5NC(=O)C(C(C)c6ccccc6)NC(=O)CNC(=O)C(CO)NC(=O)C(C(O)C6CNC(=N)N6C6OC(CO)C(O)C(O)C6O)NC(=O)C(C(O)C6CNC(=N)N6)NC5=O)cc4)C(O)C3O)C(O)C(O)C2O)cc1F (stereo not shown) [Example 237]
MIC Enterococcus avium (GC 4558) (Enterococcus sp.): 16 µg/mL (≈ 11.2 µM) | MIC Enterococcus faecalis (ATCC 29212) (Enterococcus sp.): 16 µg/mL (≈ 11.2 µM) | MIC Enterococcus faecalis (GC 2242) (Enterococcus sp.): 16 µg/mL (≈ 11.2 µM) | MIC Enterococcus faecalis (GC 2691) (Enterococcus sp.): 16 µg/mL (≈ 11.2 µM) | MIC Enterococcus faecalis (GC 3059) (Enterococcus sp.): 32 µg/mL (≈ 22.3 µM) | MIC Enterococcus faecalis (GC 4552) (Enterococcus sp.): 16 µg/mL (≈ 11.2 µM) | MIC Enterococcus faecalis (GC 4553) (Enterococcus sp.): 16 µg/mL (≈ 11.2 µM) | MIC Enterococcus faecalis (GC 4554) (Enterococcus sp.): 32 µg/mL (≈ 22.3 µM) | MIC Enterococcus faecalis (GC 6189) (Enterococcus sp.): 16 µg/mL (≈ 11.2 µM) | MIC Enterococcus faecium (GC 2243) (Enterococcus sp.): 16 µg/mL (≈ 11.2 µM) | MIC Enterococcus faecium (GC 4556) (Enterococcus sp.): 16 µg/mL (≈ 11.2 µM) | MIC Enterococcus faecium (GC 4557) (Enterococcus sp.): 4 µg/mL (≈ 2.79 µM) | MIC Enterococcus faecalis (ATCC 29212) (Enterococcus sp.; strain ATCC 29212): 16 µg/mL (≈ 11.2 µM) | MIC Enterococcus faecium (GC 2243) (Enterococcus sp.; strain GC 2243): 16 µg/mL (≈ 11.2 µM) | MIC Enterococcus faecalis (GC 4552) (Enterococcus sp.; strain GC 4552): 16 µg/mL (≈ 11.2 µM) | MIC Enterococcus faecalis (GC 4553) (Enterococcus sp.; strain GC 4553): 16 µg/mL (≈ 11.2 µM) | MIC Enterococcus faecalis (GC 4554) (Enterococcus sp.; strain GC 4554): 32 µg/mL (≈ 22.3 µM) | MIC Enterococcus faecium (GC 4556) (Enterococcus sp.; strain GC 4556): 16 µg/mL (≈ 11.2 µM) | MIC Enterococcus faecium (GC 4557) (Enterococcus sp.; strain GC 4557): 4 µg/mL (≈ 2.79 µM) | MIC Enterococcus avium (GC 4558) (Enterococcus sp.; strain GC 4558): 16 µg/mL (≈ 11.2 µM) | MIC Enterococcus faecalis (GC 6189) (Enterococcus sp.; strain GC 6189): 16 µg/mL (≈ 11.2 µM) | MIC Enterococcus faecalis (GC 2242) (Enterococcus sp.; inoculum 5×10^5 CFU/mL, strain GC 2242): 16 µg/mL (≈ 11.2 µM) | MIC Enterococcus faecalis (GC 2691) (Enterococcus sp.; inoculum 5×10^5 CFU/mL, strain GC 2691): 16 µg/mL (≈ 11.2 µM) | MIC Enterococcus faecalis (GC 3059) (Enterococcus sp.; inoculum 5×10^5 CFU/mL, strain GC 3059): 32 µg/mL (≈ 22.3 µM) | MIC Coagulase Negative Staphylococcus (GC 4547) (Staphylococcus sp.): 2 µg/mL (≈ 1.4 µM) | MIC Coagulase Negative Staphylococcus (GC 4548) (Staphylococcus sp.): 1 µg/mL (≈ 0.698 µM) | MIC Coagulase Negative Staphylococcus (GC 4549) (Staphylococcus sp.): 1 µg/mL (≈ 0.698 µM) | MIC Coagulase Negative Staphylococcus (GC 4551) (Staphylococcus sp.): 4 µg/mL (≈ 2.79 µM) | MIC Coagulase Negative Staphylococcus (GC 6257) (Staphylococcus sp.): 1 µg/mL (≈ 0.698 µM) | MIC Staphylococcus aureus (ATCC 29213) (Staphylococcus sp.): 4 µg/mL (≈ 2.79 µM) | MIC Staphylococcus aureus (GC 1131) (Staphylococcus sp.): 4 µg/mL (≈ 2.79 µM) | MIC Staphylococcus aureus (GC 3051) (Staphylococcus sp.): 2 µg/mL (≈ 1.4 µM) | MIC Staphylococcus aureus (GC 3053) (Staphylococcus sp.): 4 µg/mL (≈ 2.79 µM) | MIC Staphylococcus aureus (GC 4541) (Staphylococcus sp.): 2 µg/mL (≈ 1.4 µM) | MIC Staphylococcus aureus (GC 4542) (Staphylococcus sp.): 8 µg/mL (≈ 5.58 µM) | MIC Staphylococcus aureus (GC 4544) (Staphylococcus sp.): 4 µg/mL (≈ 2.79 µM) | MIC Staphylococcus aureus (GC 4545) (Staphylococcus sp.): 2 µg/mL (≈ 1.4 µM) | MIC Staphylococcus aureus-SMITH (GC 4543) (Staphylococcus sp.): 2 µg/mL (≈ 1.4 µM) | MIC Staphylococcus haemolyticus (GC 4546) (Staphylococcus sp.): 1 µg/mL (≈ 0.698 µM) | MIC Staphylococcus aureus (ATCC 29213) (Staphylococcus sp.; strain ATCC 29213): 4 µg/mL (≈ 2.79 µM) | MIC Staphylococcus aureus (GC 1131) (Staphylococcus sp.; strain GC 1131): 4 µg/mL (≈ 2.79 µM) | MIC Staphylococcus aureus (GC 3051) (Staphylococcus sp.; strain GC 3051): 2 µg/mL (≈ 1.4 µM) | MIC Staphylococcus aureus (GC 3053) (Staphylococcus sp.; strain GC 3053): 4 µg/mL (≈ 2.79 µM) | MIC Staphylococcus aureus (GC 4541) (Staphylococcus sp.; strain GC 4541): 2 µg/mL (≈ 1.4 µM) | MIC Staphylococcus aureus (GC 4542) (Staphylococcus sp.; strain GC 4542): 8 µg/mL (≈ 5.58 µM) | MIC Staphylococcus aureus-SMITH (GC 4543) (Staphylococcus sp.; strain GC 4543): 2 µg/mL (≈ 1.4 µM) | MIC Staphylococcus aureus (GC 4544) (Staphylococcus sp.; strain GC 4544): 4 µg/mL (≈ 2.79 µM) | MIC Staphylococcus aureus (GC 4545) (Staphylococcus sp.; strain GC 4545): 2 µg/mL (≈ 1.4 µM) | MIC Staphylococcus haemolyticus (GC 4546) (Staphylococcus sp.; strain GC 4546): 1 µg/mL (≈ 0.698 µM) | MIC Coagulase Negative Staphylococcus (GC 4547) (Staphylococcus sp.; strain GC 4547): 2 µg/mL (≈ 1.4 µM) | MIC Coagulase Negative Staphylococcus (GC 4548) (Staphylococcus sp.; strain GC 4548): 1 µg/mL (≈ 0.698 µM) | MIC Coagulase Negative Staphylococcus (GC 4549) (Staphylococcus sp.; strain GC 4549): 1 µg/mL (≈ 0.698 µM) | MIC Coagulase Negative Staphylococcus (GC 4551) (Staphylococcus sp.; strain GC 4551): 4 µg/mL (≈ 2.79 µM) | MIC Coagulase Negative Staphylococcus (GC 6257) (Staphylococcus sp.; strain GC 6257): 1 µg/mL (≈ 0.698 µM) | MIC Streptococcus agalactiae (GC 4564) (Streptococcus sp.): 2 µg/mL (≈ 1.4 µM) | MIC Streptococcus pneumoniae (ATCC 6301) (Streptococcus sp.): 0.5 µg/mL (≈ 0.349 µM) | MIC Streptococcus pneumoniae (GC 1894) (Streptococcus sp.): 0.25 µg/mL (≈ 0.174 µM) | MIC Streptococcus pneumoniae (GC 4565) (Streptococcus sp.): 0.5 µg/mL (≈ 0.349 µM) | MIC Streptococcus pyogenes (GC 4563) (Streptococcus sp.): 1 µg/mL (≈ 0.698 µM) | MIC Streptococcus pneumoniae (ATCC 6301) (Streptococcus sp.; inoculum 5×10^5 CFU/mL, strain ATCC 6301): 0.5 µg/mL (≈ 0.349 µM) | MIC Streptococcus pneumoniae (GC 1894) (Streptococcus sp.; inoculum 5×10^5 CFU/mL, strain GC 1894): 0.25 µg/mL (≈ 0.174 µM) | MIC Streptococcus pyogenes (GC 4563) (Streptococcus sp.; inoculum 5×10^5 CFU/mL, strain GC 4563): 1 µg/mL (≈ 0.698 µM) | MIC Streptococcus agalactiae (GC 4564) (Streptococcus sp.; inoculum 5×10^5 CFU/mL, strain GC 4564): 2 µg/mL (≈ 1.4 µM) | MIC Streptococcus pneumoniae (GC 4565) (Streptococcus sp.; inoculum 5×10^5 CFU/mL, strain GC 4565): 0.5 µg/mL (≈ 0.349 µM) | MIC Escherichia coli (ATCC 25922) (Escherichia coli): 64 µg/mL (≈ 44.6 µM) | MIC Escherichia coli (GC 4559) (Escherichia coli): 64 µg/mL (≈ 44.6 µM) | MIC Escherichia coli (GC 4560) (Escherichia coli): 1 µg/mL (≈ 0.698 µM)
